Laboratory results published in PubChem BioAssay (NCI).
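All cell lines were grown in 96-well plates and treated with compound for 48 hours. Here, GI50 denotes the concentration required for 50% inhibition of growth. The concentration for full growth arrest is given as TGI.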

Tests used:
Assay in all cases: NCI anticancer screen, dose series, 48 h
[1] = tested on: ACHN renal
[2] = tested on: OVCAR-4 ovarian
[3] = tested on: DMS 273 small cell lung
[4] = tested on: IGROV1 ovarian
[5] = tested on: HOP-92 NSCLC
[6] = tested on: HOP-18 NSCLC
[7] = tested on: HCT-116 colon
[8] = tested on: U251 CNS
[9] = tested on: 786-0 renal
[10] = tested on: UACC-62 melanoma
[11] = tested on: MOLT-4 leukemia
[12] = tested on: A498 renal
[13] = tested on: UO-31 renal
[14] = tested on: CCRF-CEM leukemia
[15] = tested on: SW-620 colon
[16] = tested on: NCI-H522 lung
[17] = tested on: KM20L2 colon
[18] = tested on: M14 melanoma
[19] = tested on: KM12 colon
[20] = tested on: SNB-75 CNS
[21] = tested on: MALME-3M melanoma
[22] = tested on: RPMI-8226 leukemia
[23] = tested on: DLD-1 colon
[24] = tested on: OVCAR-8 ovarian
[25] = tested on: NCI-H460 lung
[26] = tested on: OVCAR-5 ovarian
[27] = tested on: HCC-2998 colon
[28] = tested on: TK-10 renal
[29] = tested on: HOP-62 NSCLC
[30] = tested on: CAKI-1 renal
[31] = tested on: HT29 colon
[32] = tested on: NCI-H23 lung
[33] = tested on: OVCAR-3 ovarian
[34] = tested on: SN12C renal
[35] = tested on: HL-60(TB) leukemia
[36] = tested on: SK-MEL-28 melanoma
[37] = tested on: UACC-257 melanoma
[38] = tested on: A549 NSCLC
[39] = tested on: EKVX NSCLC
[40] = tested on: COLO 205 colon
[41] = tested on: LOX IMVI melanoma
[42] = tested on: SF-539 CNS
[43] = tested on: SK-OV-3 ovarian
[44] = tested on: SF-295 CNS
[45] = tested on: SK-MEL-2 melanoma
[46] = tested on: SNB-78 CNS
[47] = tested on: HCT-15 colon
[48] = tested on: SNB-19 CNS
[49] = tested on: LXFL 529 NSCLC
[50] = tested on: NCI-H226 lung
[51] = tested on: K-562 leukemia
[52] = tested on: SF-268 CNS
[53] = tested on: SK-MEL-5 melanoma
[54] = tested on: RXF 393 renal
[55] = tested on: M19-MEL melanoma
[56] = tested on: DMS 114 small cell lung
[57] = tested on: XF 498 CNS
[58] = tested on: SR leukemia

In the case of `N.N.NCCCCCCCCCN.O=C([O-])CC(=O)[O-].O=C([O-])CC(=O)[O-].[Pt+4].[Pt+4]`, the GI50 [1] is reported as 90.3 µM, the TGI [1] is reported as > 100 µM and the GI50 [2] is reported as > 100 µM. For the same compound, the TGI [2] was > 100 µM, the GI50 [3] was > 100 µM and the TGI [3] was > 100 µM. The GI50 [4] was > 100 µM, the TGI [4] was > 100 µM and the GI50 [5] was > 100 µM. The TGI [5] was > 100 µM, the GI50 [6] was > 100 µM and the TGI [6] was > 100 µM. The GI50 [7] was > 100 µM, the TGI [7] was > 100 µM and the GI50 [8] was 95.2 µM. For the same compound, the TGI [8] was > 100 µM, the GI50 [9] was 85.8 µM and the TGI [9] was > 100 µM. For the same compound, the GI50 [10] was 23.1 µM, the TGI [10] was > 100 µM and the GI50 [11] was > 100 µM. The TGI [11] was > 100 µM, the GI50 [12] was > 100 µM and the TGI [12] was > 100 µM. The GI50 [13] was > 100 µM, the TGI [13] was > 100 µM and the GI50 [14] was 21.1 µM. The TGI [14] was > 100 µM, the GI50 [15] was 66.4 µM and the TGI [15] was > 100 µM. For the same compound, the GI50 [16] was 67.5 µM, the TGI [16] was > 100 µM and the GI50 [17] was > 100 µM. For the same compound, the TGI [17] was > 100 µM, the GI50 [18] was 50.5 µM and the TGI [18] was > 100 µM. The GI50 [19] was > 100 µM, the TGI [19] was > 100 µM and the GI50 [20] was > 100 µM. For the same compound, the TGI [20] was > 100 µM, the GI50 [21] was 28.9 µM and the TGI [21] was 73.3 µM. The GI50 [22] was > 100 µM, the TGI [22] was > 100 µM and the GI50 [23] was > 100 µM. The TGI [23] was > 100 µM, the GI50 [24] was > 100 µM and the TGI [24] was > 100 µM. The GI50 [25] was 25.8 µM, the TGI [25] was > 100 µM and the GI50 [26] was > 100 µM. The TGI [26] was > 100 µM, the GI50 [27] was > 100 µM and the TGI [27] was > 100 µM. The GI50 [28] was > 100 µM, the TGI [28] was > 100 µM and the GI50 [29] was > 100 µM. For the same compound, the TGI [29] was > 100 µM, the GI50 [30] was 22.3 µM and the TGI [30] was 91.1 µM. For the same compound, the GI50 [31] was > 100 µM, the TGI [31] was > 100 µM and the GI50 [32] was > 100 µM. For the same compound, the TGI [32] was > 100 µM, the GI50 [33] was > 100 µM and the TGI [33] was > 100 µM. The GI50 [34] was 67.5 µM, the TGI [34] was > 100 µM and the GI50 [35] was 13.4 µM. For the same compound, the TGI [35] was > 100 µM, the GI50 [36] was 87.5 µM and the TGI [36] was > 100 µM. For the same compound, the GI50 [37] was > 100 µM, the TGI [37] was > 100 µM and the GI50 [38] was > 100 µM. For the same compound, the TGI [38] was > 100 µM, the GI50 [39] was > 100 µM and the TGI [39] was > 100 µM. The GI50 [40] was > 100 µM, the TGI [40] was > 100 µM and the GI50 [41] was > 100 µM. For the same compound, the TGI [41] was > 100 µM, the GI50 [42] was > 100 µM and the TGI [42] was > 100 µM. The GI50 [43] was > 100 µM, the TGI [43] was > 100 µM and the GI50 [44] was > 100 µM. The TGI [44] was > 100 µM, the GI50 [45] was > 100 µM and the TGI [45] was > 100 µM. The GI50 [46] was > 100 µM, the TGI [46] was > 100 µM and the GI50 [47] was > 100 µM. The TGI [47] was > 100 µM, the GI50 [48] was > 100 µM and the TGI [48] was > 100 µM. The GI50 [49] was > 100 µM, the TGI [49] was > 100 µM and the GI50 [50] was > 100 µM. For the same compound, the TGI [50] was > 100 µM, the GI50 [51] was > 100 µM and the TGI [51] was > 100 µM. For the same compound, the GI50 [52] was > 100 µM, the TGI [52] was > 100 µM and the GI50 [53] was 28.9 µM. For the same compound, the TGI [53] was 81.7 µM, the GI50 [54] was > 100 µM and the TGI [54] was > 100 µM.

`Cc1cccc(N=C2NC(=O)C(CC(=O)Nc3cccc(C)c3C)S2)c1` (configuration not stated) was tested, and the TGI [1] was > 100 µM, the TGI [2] was > 100 µM and the TGI [4] was > 100 µM. The TGI [5] was > 100 µM, the TGI [7] was > 100 µM and the TGI [8] was > 100 µM. The TGI [9] was > 100 µM, the TGI [10] was > 100 µM and the TGI [11] was > 100 µM. The TGI [13] was > 100 µM, the TGI [14] was > 100 µM and the TGI [15] was > 100 µM. For the same compound, the TGI [17] was > 100 µM, the TGI [18] was > 100 µM and the TGI [19] was > 100 µM. For the same compound, the TGI [20] was > 100 µM, the TGI [21] was > 100 µM and the TGI [22] was > 100 µM. The TGI [23] was > 100 µM, the TGI [24] was > 100 µM and the TGI [25] was > 100 µM. For the same compound, the TGI [26] was > 100 µM, the TGI [27] was > 100 µM and the TGI [28] was > 100 µM. For the same compound, the TGI [29] was > 100 µM, the TGI [31] was > 100 µM and the TGI [32] was > 100 µM. The TGI [33] was > 100 µM, the TGI [34] was > 100 µM and the TGI [35] was > 100 µM. For the same compound, the TGI [36] was > 100 µM, the TGI [55] was > 100 µM and the TGI [37] was > 100 µM. The TGI [38] was > 100 µM, the TGI [39] was > 100 µM and the TGI [56] was > 100 µM. The TGI [40] was > 100 µM, the TGI [41] was > 100 µM and the TGI [44] was > 100 µM. The TGI [45] was > 100 µM, the TGI [46] was > 100 µM and the TGI [48] was > 100 µM. The TGI [49] was > 100 µM, the TGI [50] was > 100 µM and the TGI [52] was > 100 µM. For the same compound, the TGI [57] was > 100 µM, the TGI [53] was > 100 µM and the TGI [54] was > 100 µM.

Work on `OCCNCCOc1ccc(/C(=C(/Cl)c2ccccc2)c2ccccc2)cc1` yielded a TGI [2] of 31.5 µM, a TGI [4] of 25.4 µM and a TGI [6] of 33.4 µM. It also gave a TGI [7] of 20.2 µM, a TGI [8] of 21.1 µM and a TGI [9] of 22.2 µM. For the same compound, the TGI [10] was 26.7 µM, the TGI [11] was 17.2 µM and the TGI [13] was 22.2 µM. It also gave a TGI [14] of 9.87 µM, a TGI [15] of 17.3 µM and a TGI [16] of 28.8 µM. For the same compound, the TGI [17] was 8.56 µM, the TGI [18] was 3.59 µM and the TGI [19] was 13.5 µM. For the same compound, the TGI [20] was 8.46 µM, the TGI [22] was 17.3 µM and the TGI [23] was 27.4 µM. For the same compound, the TGI [24] was 28 µM, the TGI [58] was 12.5 µM and the TGI [25] was 18.2 µM. For the same compound, the TGI [26] was 28.3 µM, the TGI [28] was 15.9 µM and the TGI [29] was 31.4 µM. The TGI [30] was 25.7 µM, the TGI [31] was 10 µM and the TGI [32] was 28.4 µM. The TGI [33] was 24.8 µM, the TGI [34] was 19.7 µM and the TGI [35] was 4.52 µM. The TGI [36] was 3.16 µM, the TGI [55] was 23.5 µM and the TGI [37] was 12 µM. It also gave a TGI [38] of 12.8 µM, a TGI [39] of 28.6 µM and a TGI [56] of 29.6 µM. The TGI [40] was 22.8 µM, the TGI [41] was 16.6 µM and the TGI [42] was 26.6 µM. For the same compound, the TGI [43] was 10.4 µM, the TGI [44] was 28.5 µM and the TGI [45] was 26.4 µM. It also gave a TGI [46] of 23.6 µM, a TGI [47] of 18.6 µM and a TGI [48] of 28.4 µM. The TGI [49] was 19.7 µM, the TGI [50] was 45 µM and the TGI [51] was 11 µM. The TGI [57] was 18.2 µM, the TGI [53] was 19.2 µM and the TGI [54] was 14.7 µM.
